Laboratory results: EP0571593B1, “NEW NON IONIC IODIZED AGENTS FOR X-RAY CONTRASTING, METHOD FOR PREPARING THEM AND GALENICAL COMPOSITIONS CONTAINING THEM” (CENTRO INVESTIGACION JUSTESA IMAGEN S.A., priority 1991, dated 1993)

How the values were obtained:
Type in all cases: physicochemical
[1] = Viscosity of aqueous solutions; conditions: 30°C, 300mg I/ml
[2] = Iodine content
[3] = Osmolality of aqueous solutions; conditions: 300mg I/ml

Viscosity mPa s (30°C) at 300mg I/ml [1]	% Iodine [2]	Osmolality mosm/kg at 300mg I/ml [3] [mosm/kg]	Structure (SMILES)
9,6 mPa s	49,1%	190	COCC(=O)Nc1c(I)c(C(=O)NCC(O)CO)c(I)c(C(=O)N(CC(=O)N(C)c2c(I)c(C(=O)NCC(O)CO)c(I)c(C(=O)NCC(O)CO)c2I)CC(O)COC)c1I (stereo not drawn) [EXAMPLE 39, N,N'-bis-(2,3-dihydroxypropyl)-5-{3-[N-(2,3-dihydroxypropyl)carbamoyl]-5-methoxyacetamido-2,4,6-triiodobenzoyl--N-(2-hydroxy-3-methoxypropyl)aminoacetyl-N-methylamino} -2,4,6-triiodoisophthalamide]
7,2 mPa s	51,6%	310	COCC(=O)Nc1c(I)c(C(=O)NCC(=O)Nc2c(I)c(C(=O)N(C)CC(O)CO)c(I)c(C(=O)N(C)CC(O)CO)c2I)c(I)c(C(=O)NCC(O)CO)c1I (stereo not drawn) [EXAMPLE 1, N,N'-bis-(2,3-dihydroxypropyl)-N,N'-dimethyl-5-{3-[N-(2,3-dihydroxypropyl)carbamoyl]-5-methoxyacetamido-2,4,6-triiodobenzoylaminoacetamido}-2,4,6-triiodoisophthalamide]
8,6 mPa s	50%	162	COCC(=O)Nc1c(I)c(C(=O)NCC(O)CO)c(I)c(C(=O)N(CC(=O)Nc2c(I)c(C(=O)NCC(O)CO)c(I)c(C(=O)NCC(O)CO)c2I)CC(O)CO)c1I (stereo not drawn) [EXAMPLE 15, N,N'-bis-(2,3-dihydroxypropyl)-5-{3-[N-(2,3-dihydroxypropyl)carbamoyl]-5-methoxyacetamido-2,4,6-triiodobenzoyl -N-(2,3-dihydroxypropyl)aminoacetamido}-2,4,6-triiodo isophthalamide]
7,9 mPa s	50,5%	162	CC(=O)Nc1c(I)c(C(=O)NCC(O)CO)c(I)c(C(=O)N(CC(=O)N(C)c2c(I)c(C(=O)NCC(O)CO)c(I)c(C(=O)NCC(O)CO)c2I)CC(O)CO)c1I (stereo not drawn) [EXAMPLE 23, N,N -bis-(2,3-dihydroxypropyl)-5-{3-[N-(2,3-dihydroxypropyl)carbamoyl]-5-acetamido-2,4,6-triiodobenzoyl-N-(2,3-dihydroxypropyl)aminoacetyl-N-methylamino}-2,4,6-triiodoisophthalamide]
10,2 mPa s	49,1%	160	COCCN(C(=O)CO)c1c(I)c(C(=O)NCC(=O)N(CCOC)c2c(I)c(C(=O)NCC(O)CO)c(I)c(C(=O)NCC(O)CO)c2I)c(I)c(C(=O)NCC(O)CO)c1I (stereo not drawn) [EXAMPLE 40, N,N'-bis-(2,3-dihydroxypropyl)-5-{3-[N-(2,3-dihydroxypropyl)carbamoyl]-5-hydroxyacetyl-N-(2-methoxyethyl)amino-2,4,6-triiodobenzoylaminoacetyl-N-(2-methoxyethyl)amino} -2,4,6-triiodoisophthalamide]
8,2 mPa s	50%	155	COCC(=O)N(CCO)c1c(I)c(C(=O)NCC(O)CO)c(I)c(C(=O)N(CCO)CC(=O)N(CCO)c2c(I)c(C(=O)NCCO)c(I)c(C(=O)NCCO)c2I)c1I (stereo not drawn) [EXAMPLE 32, N,N'-bis-(2-hydroxyethyl)-5-{3-[N-(2,3-dihydroxypropyl)carbamoyl]-5-methoxyacetyl-N-(2-hydroxyethyl)amino-2,4,6-triiodobenzoyl-N-(2-hydroxyethyl)aminoacetyl-N-(2-hydroxyethyl)amino}-2,4,6-triiodoisophthalamide]
10,2 mPa s	50,5%	119	COCC(=O)Nc1c(I)c(C(=O)NCC(=O)Nc2c(I)c(C(=O)N(C)CC(O)CO)c(I)c(C(=O)N(C)CC(O)CO)c2I)c(I)c(C(=O)NC(CO)C(O)CO)c1I (stereo not drawn) [EXAMPLE 5, N,N'-bis-(2,3-dihydroxypropyl)-N,N'-dimethyl-5-{3-[N-(1-hydroxymethyl-2,3-dihydroxypropyl)carbamoyl]-5-methoxyacetamido-2,4,6-triiodobenzoylaminoacetamido}-2,4,6-triiodoisophthalamide]
9,4 mPa s	50%	289	COCC(=O)Nc1c(I)c(C(=O)NCC(=O)N(C)c2c(I)c(C(=O)NC(CO)C(O)CO)c(I)c(C(=O)NC(CO)C(O)CO)c2I)c(I)c(C(=O)NCC(O)CO)c1I (stereo not drawn) [EXAMPLE 4, N,N'-bis-(1-hydroxymethyl-2,3-dihydroxypropyl)-5-{3-(N-(2,3-dihydroxypropyl)carbamoyl]-5-methoxyacetamido-2,4,6-triiodobenzoylaminoacetyl-N-methylamino}-2,4,6-triiodo isophthalamide]
7,6 mPa s	50,5%	131	O=C(NCCO)c1c(I)c(C(=O)NCCO)c(I)c(N(CCO)C(=O)CN(CCO)C(=O)c2c(I)c(C(=O)NCC(O)CO)c(I)c(N(CCO)C(=O)CO)c2I)c1I (stereo not drawn) [EXAMPLE 16, N,N'-bis-(2-hydroxyethyl)-5-{3-[N-(2,3-dihydroxypropyl)-carbamoyl]-5-hydroxyacetyl-N-(2-hydroxyethyl)amino-2,4,6-tri-iodobenzoyl-N-(2-hydroxyethyl)amino-acetyl-N-(2-hydroxyethyl)amino}-2,4,6-triiodoisophthalamide]
10,0 mPa s	49%	118	COCC(=O)Nc1c(I)c(C(=O)NCC(O)CO)c(I)c(C(=O)N(CCO)CC(=O)Nc2c(I)c(C(=O)NC(CO)C(O)CO)c(I)c(C(=O)NC(CO)C(O)CO)c2I)c1I (stereo not drawn) [EXAMPLE 22, N,N'-bis-(1-hydroxymethyl-2,3-dihydroxypropyl)-5-{3-[N-(2,3-dihydroxypropyl)carbamoyl]-5-methoxyacetamido-2,4,6-triiodobenzoyl-N-(2-hydroxyethyl)aminoacetamido}-2,4,6-triiodo isophthalamide]
10,5 mPa s	49,5%	147	COCC(=O)Nc1c(I)c(C(=O)NCC(=O)Nc2c(I)c(C(=O)NC(CO)C(O)CO)c(I)c(C(=O)NC(CO)C(O)CO)c2I)c(I)c(C(=O)NC(CO)C(O)CO)c1I (stereo not drawn) [EXAMPLE 7, N,N'-bis-(1-hydroxymethyl-2,3-dihydroxypropyl)-5-{3-[N-(1-hydroxymethyl-2,3-dihydroxypropyl)carbamoyl]-5-methoxyacetamido-2,4,6-triiodobenzoylaminoacetamido}-2,4,6-triiodo isophthalamide]
8,4 mPa s	52%	166	CN(CC(O)CO)C(=O)c1c(I)c(NC(=O)CNC(=O)c2c(I)c(NC(=O)CO)c(I)c(C(=O)NCC(O)CO)c2I)c(I)c(C(=O)N(C)CC(O)CO)c1I (stereo not drawn) [EXAMPLE 2, N.N'-bis-(2,3-dihydroxypropyl)-N,N'-dimethyl-5-{3-[N-(2,3-dihydroxypropyl)carbamoyl]-5-hydroxyacetamido-2,4,6-triiodobenzoylaminoacetamido}-2,4,6-triiodoisophthalamide]
8,2 mPa s	49,1%	214	COCC(=O)N(CCO)c1c(I)c(C(=O)NCC(O)CO)c(I)c(C(=O)N(C)CC(=O)N(CCO)c2c(I)c(C(=O)NCC(O)CO)c(I)c(C(=O)NCC(O)CO)c2I)c1I (stereo not drawn) [EXAMPLE 35, N,N'-bis-(2,3-dihydroxypropyl)-5-{3-[N-(2,3-dihydroxypropyl)carbamoyl]-5-methoxyacetyl-N-(2-hydroxyethyl)amino-2,4,6-triiodobenzoyl-N-methylaminoacetyl-N-(2-hydroxyethyl)amino}-2,4,6 triiodoisophthalamide]
9,5 mPa s	51,5%	116	COCC(=O)Nc1c(I)c(C(=O)NCC(=O)Nc2c(I)c(C(=O)NCC(O)CO)c(I)c(C(=O)NCC(O)CO)c2I)c(I)c(C(=O)NC(CO)C(O)CO)c1I (stereo not drawn) [EXAMPLE 6, N,N'-bis-(2,3-dihydroxypropyl)-5-{3-[N-(1-hydroxymethyl-2,3-dihydroxypropyl)carbamoyl]-5-methoxyacetamido-2,4,6-triiodobenzoylaminoacetamido}-2,4,6-triiodoisochthalamide]
8,8 mPa s	49,6%	180	CC(=O)Nc1c(I)c(C(=O)NCC(O)CO)c(I)c(C(=O)N(C)CC(=O)N(C)c2c(I)c(C(=O)N(CCO)CC(O)CO)c(I)c(C(=O)N(CCO)CC(O)CO)c2I)c1I (stereo not drawn) [EXAMPLE 42, N,N'-bis-(2-hydroxyethyl)-N,N'-bis-(2,3-dihydroxypropyl)-5-{3-[N-(2,3-dihydroxypropyl)carbamoyl]-5-acetamido-2,4,6-triiodobenzoyl-N-methylaminoacetyl-N-methylamino}-2,4,6-triiodoisophthalamide]
8,0 mPa s	50,6%	140	COCC(=O)Nc1c(I)c(C(=O)NCC(O)CO)c(I)c(C(=O)N(C)CC(=O)N(C)c2c(I)c(C(=O)N(C)CC(O)CO)c(I)c(C(=O)N(C)CC(O)CO)c2I)c1I (stereo not drawn) [EXAMPLE 25, N,N'-bis-(2,3-dihydroxypropyl)-N,N'-dimethyl-5-{3-[N-(2,3-dihydroxypropyl)carbamoyl]-5-methoxyacetamido-2,4,6-triiodobenzoyl-N-methylaminoacetyl-N-methylamino}-2,4,6-triiodo isophthalamide]
7,7 mPa s	51,6%	145	CN(CC(O)CO)C(=O)c1c(I)c(C(=O)N(C)CC(O)CO)c(I)c(N(C)C(=O)CNC(=O)c2c(I)c(NC(=O)CO)c(I)c(C(=O)NCC(O)CO)c2I)c1I (stereo not drawn) [EXAMPLE 26, N,N'-bis-(2,3-dihydroxypropyl)-N,N'-dimethyl-5-{3-[N-(2,3-dihydroxypropyl)carbamoyl]-5-hydroxyacetamido-2,4,6-triiodobenzoylaminoacetyl-N-methylamino}-2,4,6-triiodoiso phthalamide]
